Measurements taken from US8586505B2 (SDS Biotech K. K., priority 2009, dated 2013).

Experiments:
Phytophthora infestans = assay: whole plant or invertebrate; format: in vivo; details: in Solanum lycopersicum, 96 h, read-out: Determination of control effect (preventive value)
[1] = test system: Pseudoperonospora cubensis; assay: Test of examining control effect on Pseudoperonospora cubensis (potted cucumber plants); format: in vivo; details: 96 h, 10% wettable powder adjusted to 125 ppm, 15 ml/pot sprayed on potted cucumber plants one day before spray inoculation, assessed after 1 day wet chamber and 3 days greenhouse, read-out: Determination of control effect (preventive value) on Pseudoperonospora cubensis
In short: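 Cucumber plants (Sagamihanjiro, 2.5-leaf stage) sprayed with 125 ppm compound solution from 10% wettable powder, 15 ml/pot. One day later, spray-inoculated with P. cubensis conidia (1.0×10^4 cells/ml), kept 1 day at 21° C wet, then 3 days in greenhouse. Preventive value derived from lesion area relative to untreated plants.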

Sphaerotheca fuliginea = assay: Test of examining control effect on Sphaerotheca fuliginea (potted cucumber plants); format: in vivo; details: Podosphaera fuliginea, 336 h; 10% wettable powder adjusted to 125 ppm, 15 ml/pot sprayed on potted cucumber plants one day before spray inoculation; assessed after 14 days in greenhouse; read-out: Determination of control effect (preventive value) on Sphaerotheca fuliginea
In short: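 Cucumber plants (Sagamihanjiro, 2nd leaf stage) sprayed with 125 ppm compound (from 10% wettable powder), inoculated one day later with S. fuliginea conidia (1.0×10^5 cells/ml); lesion area scored after 14 days in greenhouse. Preventive value vs untreated; ≥60% high, <60% low control.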

CCOC(=O)c1cnc(C#CCCNc2ncnc3ccccc23)s1 [compound 213]
pest or weed control at 125 ppm (Phytophthora infestans): 0 to 60%
pest or weed control at 125 µg/mL [1]: 60 to 100%
pest or weed control at 125 µg/mL (Sphaerotheca fuliginea): 60 to 100%
melting point: 113 to 114 °C

C(#Cc1ccncc1)CCNc1ncnc2sccc12 [compound 57]
pest or weed control at 125 ppm (Phytophthora infestans): 0 to 60%
pest or weed control at 125 µg/mL [1]: 0 to 60%
pest or weed control at 125 µg/mL (Sphaerotheca fuliginea): 0 to 60%
melting point: 140 to 141 °C

OCc1nc(C#CCCNc2ncnc3sccc23)cs1 [compound 70]
pest or weed control at 125 ppm (Phytophthora infestans): 60 to 100%
pest or weed control at 125 µg/mL [1]: 60 to 100%
pest or weed control at 125 µg/mL (Sphaerotheca fuliginea): 60 to 100%
melting point: 193 °C

Clc1ccc(C#CCCNc2ncnc3ccccc23)c(Cl)c1 [compound 172]
pest or weed control at 125 ppm (Phytophthora infestans): 60 to 100%
pest or weed control at 125 µg/mL [1]: 60 to 100%
pest or weed control at 125 µg/mL (Sphaerotheca fuliginea): 60 to 100%
melting point: 182 to 183 °C

FC(F)(F)c1cc(C#CCCNc2ncnc3sccc23)cc(C(F)(F)F)c1 [compound 28]
pest or weed control at 125 ppm (Phytophthora infestans): 0 to 60%
pest or weed control at 125 µg/mL [1]: 0 to 60%
pest or weed control at 125 µg/mL (Sphaerotheca fuliginea): 0 to 60%
melting point: 163 to 166 °C

C=C(C)CCc1ccccc1C#CCCNc1ncnc2ccccc12 [compound 105]
pest or weed control at 125 ppm (Phytophthora infestans): 60 to 100%
pest or weed control at 125 µg/mL [1]: 60 to 100%
pest or weed control at 125 µg/mL (Sphaerotheca fuliginea): 60 to 100%
melting point: 92 to 94 °C

C(#Cc1nccs1)CCNc1ncnc2sccc12 [compound 62]
pest or weed control at 125 ppm (Phytophthora infestans): 60 to 100%
pest or weed control at 125 µg/mL [1]: 60 to 100%
pest or weed control at 125 µg/mL (Sphaerotheca fuliginea): 60 to 100%
melting point: 128 to 129 °C

Clc1ccc(C#CCCNc2ncnc3ccccc23)cc1Cl [compound 175]
pest or weed control at 125 ppm (Phytophthora infestans): 0 to 60%
pest or weed control at 125 µg/mL [1]: 60 to 100%
pest or weed control at 125 µg/mL (Sphaerotheca fuliginea): 60 to 100%
melting point: 147 to 148 °C

CCOC(=O)c1ccc(C#CCCNc2ncnc3ccccc23)cc1 [compound 129]
pest or weed control at 125 ppm (Phytophthora infestans): 0 to 60%
pest or weed control at 125 µg/mL [1]: 60 to 100%
pest or weed control at 125 µg/mL (Sphaerotheca fuliginea): 0 to 60%
melting point: 137 to 138 °C

C(#Cc1cncs1)CCNc1ncnc2sccc12 [compound 61]
pest or weed control at 125 ppm (Phytophthora infestans): 60 to 100%
pest or weed control at 125 µg/mL [1]: 60 to 100%
pest or weed control at 125 µg/mL (Sphaerotheca fuliginea): 60 to 100%
melting point: 156 to 158 °C

C=C(C#CCCNc1ncnc2ccccc12)CO [compound 92]
pest or weed control at 125 ppm (Phytophthora infestans): 60 to 100%
pest or weed control at 125 µg/mL [1]: 60 to 100%
pest or weed control at 125 µg/mL (Sphaerotheca fuliginea): 0 to 60%
melting point: 139 °C

COc1ccc(Cl)cc1C#CCCNc1ncnc2ccccc12 [compound 179]
pest or weed control at 125 ppm (Phytophthora infestans): 60 to 100%
pest or weed control at 125 µg/mL [1]: 60 to 100%
pest or weed control at 125 µg/mL (Sphaerotheca fuliginea): 60 to 100%
melting point: 147 to 149 °C

Clc1ncnc(NCCC#Cc2ccccc2)c1Cc1ccccc1 [compound 372]
pest or weed control at 125 ppm (Phytophthora infestans): 0 to 60%
pest or weed control at 125 µg/mL [1]: 0 to 60%
pest or weed control at 125 µg/mL (Sphaerotheca fuliginea): 0 to 60%
melting point: 157 to 158 °C

COCc1ccccc1C#CCCNc1ncnc2c(Cl)cc(Cl)cc12 [compound 338]
pest or weed control at 125 ppm (Phytophthora infestans): 0 to 60%
pest or weed control at 125 µg/mL [1]: 60 to 100%
pest or weed control at 125 µg/mL (Sphaerotheca fuliginea): 0 to 60%
melting point: 161 to 162 °C

Clc1ncccc1C#CCCNc1ncnc2ccccc12 [compound 195]
pest or weed control at 125 ppm (Phytophthora infestans): 60 to 100%
pest or weed control at 125 µg/mL [1]: 60 to 100%
pest or weed control at 125 µg/mL (Sphaerotheca fuliginea): 60 to 100%
melting point: 168 to 170 °C

C(#Cc1cscn1)CCNc1ncnc2sccc12 [compound 63]
pest or weed control at 125 ppm (Phytophthora infestans): 60 to 100%
pest or weed control at 125 µg/mL [1]: 60 to 100%
pest or weed control at 125 µg/mL (Sphaerotheca fuliginea): 60 to 100%
melting point: 174 °C

C(#Cc1ccccc1)CCNc1ncnc2ccccc12 [compound 96]
pest or weed control at 125 ppm (Phytophthora infestans): 60 to 100%
pest or weed control at 125 µg/mL [1]: 60 to 100%
pest or weed control at 125 µg/mL (Sphaerotheca fuliginea): 60 to 100%
melting point: 120 to 122 °C

CC(C)(C)[Si](C)(C)C#CCCNc1ncnc2sccc12 [compound 5]
pest or weed control at 125 ppm (Phytophthora infestans): 0 to 60%
pest or weed control at 125 µg/mL [1]: 60 to 100%
pest or weed control at 125 µg/mL (Sphaerotheca fuliginea): 60 to 100%
melting point: 190 to 192 °C

OCc1ccc(C#CCCNc2ncnc3ccccc23)cc1 [compound 132]
pest or weed control at 125 ppm (Phytophthora infestans): 0 to 60%
pest or weed control at 125 µg/mL [1]: 60 to 100%
pest or weed control at 125 µg/mL (Sphaerotheca fuliginea): 0 to 60%
melting point: 69 to 71 °C

Fc1cccc(Oc2nc(C#CCCNc3ncnc4ccccc34)cs2)c1 [compound 225]
pest or weed control at 125 ppm (Phytophthora infestans): 60 to 100%
pest or weed control at 125 µg/mL [1]: 60 to 100%
pest or weed control at 125 µg/mL (Sphaerotheca fuliginea): 60 to 100%
melting point: 134 to 136 °C

Clc1ncnc(NCCC#Cc2ccccc2)c1Cl [compound 357]
pest or weed control at 125 ppm (Phytophthora infestans): 60 to 100%
pest or weed control at 125 µg/mL [1]: 60 to 100%
pest or weed control at 125 µg/mL (Sphaerotheca fuliginea): 0 to 60%
melting point: 122 to 123 °C

Fc1cncc(C#CCCNc2ncnc3ccccc23)c1 [compound 193]
pest or weed control at 125 ppm (Phytophthora infestans): 60 to 100%
pest or weed control at 125 µg/mL [1]: 60 to 100%
pest or weed control at 125 µg/mL (Sphaerotheca fuliginea): 60 to 100%
melting point: 145 to 150 °C

C(#Cc1csc(-c2ccoc2)n1)CCNc1ncnc2sccc12 [compound 78]
pest or weed control at 125 ppm (Phytophthora infestans): 0 to 60%
pest or weed control at 125 µg/mL [1]: 60 to 100%
pest or weed control at 125 µg/mL (Sphaerotheca fuliginea): 60 to 100%
melting point: 140 to 142 °C

OC(c1ccccc1C#CCCNc1ncnc2ccccc12)C(F)(F)F (stereo not shown) [compound 138]
pest or weed control at 125 ppm (Phytophthora infestans): 0 to 60%
pest or weed control at 125 µg/mL [1]: 0 to 60%
pest or weed control at 125 µg/mL (Sphaerotheca fuliginea): 0 to 60%
melting point: 183 to 187 °C

FC(F)(F)c1ccccc1Oc1nc(C#CCCNc2ncnc3ccccc23)cs1 [compound 218]
pest or weed control at 125 ppm (Phytophthora infestans): 0 to 60%
pest or weed control at 125 µg/mL [1]: 60 to 100%
pest or weed control at 125 µg/mL (Sphaerotheca fuliginea): 0 to 60%
melting point: 159 to 161 °C

C(#Cc1csc(-c2ccsc2)n1)CCNc1ncnc2sccc12 [compound 80]
pest or weed control at 125 ppm (Phytophthora infestans): 0 to 60%
pest or weed control at 125 µg/mL [1]: 60 to 100%
pest or weed control at 125 µg/mL (Sphaerotheca fuliginea): 60 to 100%
melting point: 55 to 56 °C

Cc1nc(C#CCCNc2ncnc3sccc23)cs1 [compound 66]
pest or weed control at 125 ppm (Phytophthora infestans): 0 to 60%
pest or weed control at 125 µg/mL [1]: 60 to 100%
pest or weed control at 125 µg/mL (Sphaerotheca fuliginea): 0 to 60%
melting point: 160 to 161 °C

C(#Cc1ccc2ccccc2c1)CCNc1ncnc2ccccc12 [compound 183]
pest or weed control at 125 ppm (Phytophthora infestans): 60 to 100%
pest or weed control at 125 µg/mL [1]: 60 to 100%
pest or weed control at 125 µg/mL (Sphaerotheca fuliginea): 60 to 100%
melting point: 159 to 160 °C

FC(F)(F)c1ccc(C#CCCNc2ncnc3ccccc23)cn1 [compound 198]
pest or weed control at 125 ppm (Phytophthora infestans): 0 to 60%
pest or weed control at 125 µg/mL [1]: 60 to 100%
pest or weed control at 125 µg/mL (Sphaerotheca fuliginea): 60 to 100%
melting point: 134 to 139 °C

CCOc1ccccc1C#CCCNc1ncnc2ccccc12 [compound 118]
pest or weed control at 125 ppm (Phytophthora infestans): 60 to 100%
pest or weed control at 125 µg/mL [1]: 60 to 100%
pest or weed control at 125 µg/mL (Sphaerotheca fuliginea): 60 to 100%
melting point: 119 to 120 °C

N#Cc1cccc(Oc2nc(C#CCCNc3ncnc4ccccc34)cs2)c1 [compound 222]
pest or weed control at 125 ppm (Phytophthora infestans): 0 to 60%
pest or weed control at 125 µg/mL [1]: 60 to 100%
pest or weed control at 125 µg/mL (Sphaerotheca fuliginea): 60 to 100%
melting point: 137 to 139 °C

Clc1cc(NCCC#Cc2ccccc2)ncn1 [compound 358]
pest or weed control at 125 ppm (Phytophthora infestans): 0 to 60%
pest or weed control at 125 µg/mL [1]: 0 to 60%
pest or weed control at 125 µg/mL (Sphaerotheca fuliginea): 60 to 100%
melting point: 118 to 120 °C

CS(=O)(=O)c1ccc(C#CCCNc2ncnc3ccccc23)cc1 [compound 120]
pest or weed control at 125 ppm (Phytophthora infestans): 60 to 100%
pest or weed control at 125 µg/mL [1]: 60 to 100%
pest or weed control at 125 µg/mL (Sphaerotheca fuliginea): 60 to 100%
melting point: 164 to 165 °C

CC(CC#Cc1cscn1)Nc1ncnc2ccccc12 (stereo not shown) [compound 291]
pest or weed control at 125 ppm (Phytophthora infestans): 0 to 60%
pest or weed control at 125 µg/mL [1]: 60 to 100%
pest or weed control at 125 µg/mL (Sphaerotheca fuliginea): 60 to 100%
melting point: 142 to 145 °C
